In this assay the target is T1, human GlyT1c transporter (Homo sapiens, UniProt P48067).
T1 construct: expressed in transfected cells; host or cells: CHO cells (recombinant; line hGlyT1c_5_CHO is named for the uptake assay)
T1 sequence (P48067 1-706): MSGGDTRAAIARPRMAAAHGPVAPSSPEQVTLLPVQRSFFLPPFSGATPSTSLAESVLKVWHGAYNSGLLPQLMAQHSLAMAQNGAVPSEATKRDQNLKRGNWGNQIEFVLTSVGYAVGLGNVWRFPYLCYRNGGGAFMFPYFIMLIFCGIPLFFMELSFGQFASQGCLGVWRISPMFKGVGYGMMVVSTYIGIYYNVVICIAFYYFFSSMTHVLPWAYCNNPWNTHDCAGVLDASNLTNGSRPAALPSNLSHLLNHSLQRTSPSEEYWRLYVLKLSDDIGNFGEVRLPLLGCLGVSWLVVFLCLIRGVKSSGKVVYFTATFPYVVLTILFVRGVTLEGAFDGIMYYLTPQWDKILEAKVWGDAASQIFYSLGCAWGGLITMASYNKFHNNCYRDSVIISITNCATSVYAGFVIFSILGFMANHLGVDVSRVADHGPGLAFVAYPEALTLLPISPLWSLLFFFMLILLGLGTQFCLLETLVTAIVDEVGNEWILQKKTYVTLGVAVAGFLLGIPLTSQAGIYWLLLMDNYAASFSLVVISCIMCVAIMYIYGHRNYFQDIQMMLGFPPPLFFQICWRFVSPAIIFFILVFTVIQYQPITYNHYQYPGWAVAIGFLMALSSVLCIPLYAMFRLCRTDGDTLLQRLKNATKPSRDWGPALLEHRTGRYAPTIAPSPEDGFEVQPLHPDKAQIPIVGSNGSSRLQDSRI
The experiment in a line: Radioligand binding assay using recombinant CHO cell membranes expressing human GlyT1. From the text: 2. Radioligand binding assays using recombinant CHO cell membranes expressing human GlyT1: […]

The mark [1] stands for this setting: radioligand binding to human GlyT1c transporter-expressing membranes.

For `Cn1cnc(S(=O)(=O)N2C[C@H](Nc3cc(OCc4ccccc4)ncn3)[C@@H](c3ccc(F)cc3)C2)c1` [Example 774, 6-(benzyloxy)-N-{(3R,4S)-4-(4-fluorophenyl)-1-[(1-methyl-1H-imidazol-4-yl)sulfonyl]pyrrolidin-3-yl}pyrimidin-4-amine], the inhibition constant (Ki) under setting [1] was at most 0.1 µM.

`Cn1cnc(S(=O)(=O)N2C[C@@H](Nc3cc(F)cc(Cl)c3)[C@H](c3ccc(F)cc3)C2)c1` (relative stereo) [Example 174, trans-N-(3-chloro-5-fluorophenyl)-4-(4-fluorophenyl)-1-[(1-methyl-1H-imidazol-4-yl)sulfonyl]pyrrolidin-3-amine]: under setting [1], the Ki was at most 1 µM. With `Cc1c(S(=O)(=O)N2C[C@@H](NC(=O)c3cccc(C(F)(F)F)c3Cl)[C@H](c3ccccc3)C2)cnn1C` (relative stereo) [Example 41, 2-chloro-N-{trans-1-[(1,5-dimethyl-1H-pyrazol-4-yl)sulfonyl]-4-phenylpyrrolidin-3-yl}-3-(trifluoromethyl)benzamide], the Ki under setting [1] is at most 10 µM.

As to `Cn1cnc(S(=O)(=O)N2C[C@H](NCC3CCC(F)(F)CC3)[C@@H](c3ccccc3)C2)c1` [Example 554, (3R,4S)-N-[(4,4-difluorocyclohexyl)methyl]-1-[(1-methyl-1H-imidazol-4-yl)sulfonyl]-4-phenylpyrrolidin-3-amine], the Ki under setting [1] is at most 1 µM. Still for that read-out and setting: then `Cn1cnc(S(=O)(=O)N2C[C@@H](S(=O)(=O)c3ccccc3)[C@H](c3ccccc3)C2)c1` (relative stereo) [Example 385, 1-methyl-4-{[trans-3-phenyl-4-(phenylsulfonyl)pyrrolidin-1-yl]sulfonyl}-1H-imidazole], with at most 10 µM; and `Cn1cnc(S(=O)(=O)N2C[C@@H]([C@@H]3CCCOC3)[C@H](Nc3cccc(Oc4ccccc4)c3)C2)c1` (mixture of isomers) [Example 786, trans-1-[(1-methyl-1H-imidazol-4-yl)sulfonyl]-N-(3-phenoxyphenyl)-4-[(3S)-tetrahydro-2H-pyran-3-yl]pyrrolidin-3-amine], with at most 1 µM. For `CC(CCN[C@H]1CN(S(=O)(=O)c2cn(C)cn2)C[C@@H]1c1ccccc1)CC(C)(C)C` (stereo partly drawn) [Example 464, (3R,4S)-1-[(1-methyl-1H-imidazol-4-yl)sulfonyl]-4-phenyl-N-(3,5,5-trimethylhexyl)pyrrolidin-3-amine], the inhibitory constant (Ki) under setting [1] was at most 1 µM. `COc1ccccc1C(=O)N[C@@H]1CN(S(=O)(=O)c2cn(C)cn2)C[C@H]1c1ccccc1` (relative stereo) [Example 20, 2-methoxy-N-{trans-1-[(1-methyl-1H-imidazol-4-yl)sulfonyl]-4-phenylpyrrolidin-3-yl}benzamide]: under setting [1], the inhibition constant Ki is at most 10 µM. For `Cc1csc(CN[C@H]2CN(S(=O)(=O)c3cn(C)cn3)C[C@@H]2c2ccccc2)n1` [Example 454, (3R,4S)-1-[(1-methyl-1H-imidazol-4-yl)sulfonyl]-N-[(4-methyl-1,3-thiazol-2-yl)methyl]-4-phenylpyrrolidin-3-amine], the Ki under setting [1] was at most 10 µM.

As to `CCCCCCNC1CN(S(=O)(=O)c2cn(C)cn2)CC1[C@@H]1CCCO1` (stereo partly drawn) [Example 821, N-hexyl-1-[(1-methyl-1H-imidazol-4-yl)sulfonyl]-4-[(2S)-tetrahydrofuran-2-yl]pyrrolidin-3-amine], the Ki (radioligand binding, recombinant CHO cell membranes expressing human GlyT1c) was at most 10 µM. Regarding `Cn1cnc(S(=O)(=O)N2C[C@@H](C(=O)NCc3ccccn3)[C@H](c3ccc(F)cc3)C2)c1` (relative stereo) [Example 634, Trans-4-(4-fluorophenyl)-1-[(1-methyl-1H-imidazol-4-yl)sulfonyl] -N-(pyridin-2-ylmethyl)pyrrolidine-3-carboxamide], the inhibition constant Ki under setting [1] is at most 10 µM. With `Cn1cnc(S(=O)(=O)N2C[C@@H](COc3ccc(F)c(C(F)(F)F)c3)[C@H](c3ccc(F)cc3)C2)c1` (relative stereo) [Example 295, 4-{[trans-3-(4-fluorophenyl)-4-{[4-fluoro-3-(trifluoromethyl)phenoxy]methyl}pyrrolidin-1-yl]sulfonyl}-1-methyl-1H-imidazole], under setting [1], the Ki was at most 0.1 µM. As to `Cn1cnc(S(=O)(=O)N2C[C@H](Nc3cc(OCc4ccccc4)c(F)cn3)[C@@H](c3ccccc3)C2)c1` [Example 776, 4-(benzyloxy)-5-fluoro-N-{(3R,4S)-1-[(1-methyl-1H-imidazol-4-yl)sulfonyl]-4-phenylpyrrolidin-3-yl}pyridin-2-amine], the Ki under setting [1] is at most 0.01 µM. As for `Cn1cnc(S(=O)(=O)N2CC(NCc3ccc(C(F)(F)F)cc3)C(O)(c3ccccc3)C2)c1` (stereo not drawn) [Example 539, 1-[(1-methyl-1H-imidazol-4-yl)sulfonyl]-3-phenyl-4-{[4-(trifluoromethyl)benzyl]amino}pyrrolidin-3-ol], the inhibition constant (Ki) under setting [1] is at most 10 µM.

In the case of `Cn1cnc(S(=O)(=O)N2C[C@@H](NCc3ccc(C(F)(F)F)cc3Cl)[C@H](c3ccc(F)cc3)C2)c1` [Example 321, (3S,4R)-N-[2-chloro-4-(trifluoromethyl)benzyl]-4-(4-fluorophenyl)-1-[(1-methyl-1H-imidazol-4-yl)sulfonyl]pyrrolidin-3-amine], the inhibition constant (Ki) under setting [1] was at most 1 µM. Regarding `Cn1cnc(S(=O)(=O)N2C[C@@H](NC(=O)c3cccc(C#N)c3)[C@H](c3ccccc3)C2)c1` (relative stereo) [Example 33, 3-cyano-N-{trans-1-[(1-methyl-1H-imidazol-4-yl)sulfonyl]-4-phenylpyrrolidin-3-yl}benzamide], the Ki under setting [1] is at most 10 µM. As for `Cn1cnc(S(=O)(=O)N2C[C@@H]([C@@H]3CCCOC3)[C@H](Nc3ccc(F)c(OC(F)(F)F)c3)C2)c1` (mixture of isomers) [Example 788, Trans-N-[4-fluoro-3-(trifluoromethoxy)phenyl]-1-[(1-methyl-1H-imidazol-4-yl)sulfonyl]-4-[(3S)-tetrahydro-2H-pyran-3-yl]pyrrolidin-3-amine], under setting [1], the Ki is at most 1 µM.

As for `Cn1cnc(S(=O)(=O)N2C[C@@H](Nc3cc(F)ccc3F)[C@H](c3ccc(F)cc3)C2)c1` (relative stereo) [Example 164, trans-N-(2,5-difluorophenyl)-4-(4-fluorophenyl)-1-[(1-methyl-1H-imidazol-4-yl)sulfonyl]pyrrolidin-3-amine], under setting [1], the Ki was at most 10 µM. Regarding `O=S(=O)(c1cccnc1)N1CC(Nc2ccc(F)c(F)c2)C(c2ccccc2)C1` (stereo not drawn) [Example 477, N-(3,4-difluorophenyl)-4-phenyl-1-(pyridin-3-ylsulfonyl)pyrrolidin-3-amine], under setting [1], the Ki was at most 10 µM.

For the molecule `Cn1cc(S(=O)(=O)N2C[C@@H](NC(=O)c3cccc(C(F)(F)F)c3Cl)[C@H](c3ccccc3)C2)c(C(F)(F)F)n1` (relative stereo) [Example 38, 2-chloro-N-[trans-1-{[1-methyl-3-(trifluoromethyl)-1H-pyrazol-4-yl]sulfonyl}-4-phenylpyrrolidin-3-yl]-3-(trifluoromethyl)benzamide], the inhibitory constant (Ki) under setting [1] is at most 10 µM. For `Cn1cnc(S(=O)(=O)N2CC(c3ccc(F)cc3)C(c3ccccc3Cl)C2)c1` (stereo not drawn) [Example 339, 4-{[3-(2-chlorophenyl)-4-(4-fluorophenyl)pyrrolidin-1-yl]sulfonyl}-1-methyl-1H-imidazole], the inhibitory constant (Ki) under setting [1] is at most 10 µM. Take `Cn1cnc(S(=O)(=O)N2CC(Nc3ccc(F)c(F)c3)C(C3CCCO3)C2)c1` (stereo not drawn) [Example 610, N-(3,4-difluorophenyl)-1-[(1-methyl-1H-imidazol-4-yl)sulfonyl]-4-[-tetrahydrofuran-2-yl]pyrrolidin-3-amine]: the Ki under setting [1] was at most 10 µM.

Regarding `CCCC(CCN[C@H]1CN(S(=O)(=O)c2cn(C)cn2)C[C@@H]1c1ccccc1)OC` (stereo partly drawn) [Example 674, (3R,4S)-N-(3-methoxyhexyl)-1-[(1-methyl-1H-imidazol-4-yl)sulfonyl]-4-phenylpyrrolidin-3-amine], the Ki under setting [1] was at most 1 µM. The same measure, in the same setting: the figure for `Cn1cnc(S(=O)(=O)N2C[C@H](Nc3cc(OC4CCCCC4)ncn3)[C@@H](c3ccc(F)cc3)C2)c1` [Example 721, 6-(cyclohexyloxy)-N-{(3R,4S)-4-(4-fluorophenyl)-1-[(1-methyl-1H-imidazol-4-yl)sulfonyl]pyrrolidin-3-yl}pyrimidin-4-amine] is at most 0.1 µM. For the molecule `CCCCOc1cc(N[C@H]2CN(S(=O)(=O)c3cn(C)cn3)C[C@@H]2c2ccc(F)cc2)ncn1` [Example 717, 6-butoxy-N-{(3R,4S)-4-(4-fluorophenyl)-1-[(1-methyl-1H-imidazol-4-yl)sulfonyl]pyrrolidin-3-yl}pyrimidin-4-amine], the inhibition constant Ki under setting [1] was at most 0.1 µM. `CCCCC(F)(F)C(=O)N[C@H]1CN(S(=O)(=O)c2cn(C)cn2)C[C@@H]1c1ccc(F)cc1` [Example 708, 2,2-difluoro-N-{(3R,4S)-4-(4-fluorophenyl)-1-[(1-methyl-1H-imidazol-4-yl)sulfonyl]pyrrolidin-3-yl}hexanamide]: the inhibitory constant (Ki) under setting [1] was at most 10 µM. In the case of `Cn1cnc(S(=O)(=O)N2C[C@@H](NC(=O)c3cccc(F)c3)[C@H](c3ccccc3)C2)c1` (relative stereo) [Example 18, 3-fluoro-N-{trans-1-[(1-methyl-1H-imidazol-4-yl)sulfonyl]-4-phenylpyrrolidin-3-yl}benzamide], under setting [1], the Ki was at most 10 µM.

The term Ki denotes the dissociation constant of the complex between target and ligand, obtained from inhibition or displacement.

Values taken from patent publication EP2970215B1, “PYRROLIDINE DERIVATIVES, PHARMACEUTICAL COMPOSITIONS CONTAINING THEM, AND THEIR USE IN THERAPY” (AbbVie Deutschland GmbH & Co. KG, priority 2013, dated 2014).
